Measured values taken from the NIST ThermoML archive (doi:10.1021/je500381c).

Assay: xn = mol fraction of the nth substance listed
Conditions: for mass density / viscosity: 100 kPa, Liquid; for mass density: Vibrating tube method; for surface tension liquid-gas: Drop volume

OCC1CCCCC1 [cyclohexylmethanol] + CC12CC3CC(C1)CC(C)(C3)C2
Conditions	mass density, 293.15 K [kg/m3]	mass density, 298.15 K [kg/m3]	mass density, 303.15 K [kg/m3]	mass density, 308.15 K [kg/m3]	mass density, 313.15 K [kg/m3]	surface tension liquid-gas, 298.15 K [mN/m]	viscosity, 293.15 K [mPa·s]	viscosity, 298.15 K [mPa·s]	viscosity, 303.15 K [mPa·s]	viscosity, 308.15 K [mPa·s]
x1 = 0.1002	–	–	–	–	–	28.2	–	–	–	–
x1 = 0.1027	903.21	899.59	895.96	892.31	888.65	–	4.113	3.615	3.204	2.857
x1 = 0.1995	905.07	901.44	897.78	894.11	890.42	28.36	4.718	4.111	3.618	3.194
x1 = 0.2996	–	–	–	–	–	28.56	–	–	–	–
x1 = 0.3012	907.15	903.51	899.85	896.17	892.47	–	5.602	4.827	4.192	3.666
x1 = 0.4004	909.76	906.13	902.45	898.75	895.03	28.74	6.901	5.842	5.005	4.326
x1 = 0.4973	912.51	908.85	905.16	901.46	897.73	28.95	8.435	7.114	5.993	5.097
x1 = 0.6008	915.54	911.97	908.3	904.6	–	29.35	11.2	9.121	7.528	6.204
x1 = 0.7002	918.7	915.07	911.44	907.77	–	29.83	14.93	11.9	9.63	7.907
x1 = 0.7892	922.49	918.88	915.23	911.57	–	–	21.14	16.63	13.35	10.82
x1 = 0.7999	–	–	–	–	–	30.46	–	–	–	–
x1 = 0.9	925.92	922.36	918.75	915.12	–	31.33	28.69	22.11	17.36	13.92
x1 = 1	929.76	926.25	922.71	919.14	–	32.43	37.75	28.67	22.34	17.57
